Measured values from US10919941B2, “Functional lipid constructs” (KODE BIOTECH LIMITED, priority 2007, dated 2021).
No end group written: not given here.

Tests used:
[1] = test system: Miltenberger Antibody Positive Panel; test: Reactivity of modified RBCs against the Miltenberger Antibody Positive Panel; assay type: cell-based, human; design: key to score vs panel 15 TAP2 / score vs panel 4 T7202 / score vs panel 8 T5896 / score vs panel 2 T217 / score vs panel 3 T165 / score vs panel 14 TAP1 / score vs panel 10 Mia / score vs panel 11 Mur / score vs panel 12 Gam / score vs panel 6 T6025 / score vs panel 7 T8445 / score vs panel 9 MIII / score vs panel 13 BoxH / reactivity with Panel Serum #7 (T8445) / agglutination score, Panel Serum #7 (T8445): 0 or ‘−’ no agglutination; 0 or ‘−’ no agglutination; 1+ or 3=very weak agglutination; 1+ or 3=very weak agglutination; 2+ or 5=weak agglutination; 2+ or 5=weak agglutination; 3+ or 8=moderate strong agglutination; 3+ or 8=moderate strong agglutination; 4+ or 10/12=strong agglutination; 4+ or 10/12=strong agglutination; 4+ or 10/12=strong agglutination
[2] = test system: natural Mi III antibody reactive human serums; test: Positive serum reactivity of modified RBCs in the field; assay type: cell-based; design: key: 0 or ‘−’ no agglutination; 0 or ‘−’ no agglutination; 1+ or 3=very weak agglutination; 1+ or 3=very weak agglutination; 2+ or 5=weak agglutination; 2+ or 5=weak agglutination; 3+ or 8=moderate strong agglutination; 3+ or 8=moderate strong agglutination; 4+ or 10/12=strong agglutination; 4+ or 10/12=strong agglutination; 4+ or 10/12=strong agglutination; settings: 22 at 50, 17 and 24 at 200 μg/ml; 3 h RT then 18 h 4° C.
Method: The suspensions are either: • 1. incubated for 2 hours at 37° C. before being washed and suspended in a cell medium for serological analysis at a concentration of 0.8 to 3% (Method 1); or • 2. incubated for 3 to 4 hours at room temperature (circa 25° C.) followed by 18 hours at 4° C. before being washed and suspended in a cell medium for serological analysis at a concentration of 0.8 to 3% (Method 2).
Serological reactions are graded or scored by either of two established systems (0 or ‘−’ no agglutination, 1+ or 3=very weak agglutination, 2+ or 5=weak agglutination, 3+ or 8=moderate strong agglutination, 4+ or 10/12=strong agglutination)

Substance: M22: DOPE peptide-lipid construct: MUTK peptide SQTNDKHKRD, leader c, spacer CMG(2) (SQTNDKHKRDC; also: DOPE peptide-lipid construct via leader Cys, spacer CMG(2))
- sensitivity and specificity towards a human polyclonal antibody panel compared with sequence 1 ([1]; MUT peptides, prior art sequence 1): superior sensitivity and specificity
- score vs panel 2 T217 ([1]; Table 8, construct 200 μg/ml): 0
- score vs panel 3 T165 ([1]; Table 8, construct 200 μg/ml): 0
- score vs panel 4 T7202 ([1]; Table 8, construct 200 μg/ml): 0
- score vs panel 6 T6025 ([1]; Table 8, construct 200 μg/ml): 10
- score vs panel 7 T8445 ([1]; Table 8, construct 200 μg/ml): 0
- score vs panel 8 T5896 ([1]; Table 8, construct 200 μg/ml): 0
- score vs panel 9 MIII ([1]; Table 8, construct 200 μg/ml): 0
- score vs panel 10 Mia ([1]; Table 8, construct 200 μg/ml): 0
- score vs panel 11 Mur ([1]; Table 8, construct 200 μg/ml): 0
- score vs panel 12 Gam ([1]; Table 8, construct 200 μg/ml): 3
- score vs panel 15 TAP2 ([1]; Table 8, construct 200 μg/ml): 0
- score vs Mi III reactive serum 488-6 [2]: 10
- score vs Mi III reactive serum 589-6 [2]: 0
- score vs Mi III reactive serum 621-3 [2]: 5
- score vs Mi III reactive serum 912485657-9 [2]: 0
- score vs Mi III reactive serum 914146821-8 [2]: 0
- score vs Mi III reactive serum 922390844-5 [2]: 0
- score vs Mi III reactive serum 926190919-0 [2]: 0
- score vs Mi III reactive serum 926555294-1 [2]: 0
- score vs Mi III reactive serum 927175131-4 [2]: 0
- score vs Mi III reactive serum 927299700-1 [2]: 0
- score vs Mi III reactive serum 927516053-2 [2]: 0
- score vs Mi III reactive serum 927619701-8 [2]: 0
- score vs Mi III reactive serum 932360876-4 [2]: 0
- score vs Mi III reactive serum 932467774-5 [2]: 0
- score vs Mi III reactive serum 932809044-1 [2]: 0
- score vs Mi III reactive serum 942223755-1 [2]: 0
- score vs Mi III reactive serum 942404708-4 (row interpreted Mur) [2]: 0
- score vs Mi III reactive serum 942404708-4 (row interpreted other) [2]: 0
- score vs Mi III reactive serum 942421413-0 [2]: 0
- score vs Mi III reactive serum 942423002-4 [2]: 0
- score vs Mi III reactive serum 942433813-3 [2]: 0
- score vs Mi III reactive serum 942433855-3 [2]: 0
- score vs Mi III reactive serum 942442720-2 [2]: 0
- score vs Mi III reactive serum 942448627-8 [2]: 0
- score vs Mi III reactive serum 942753165-4 [2]: 0
- score vs Mi III reactive serum 942762589-1 [2]: 0
- score vs Mi III reactive serum 9322338631 [2]: 0
- score vs Mi III reactive serum 9325490091 [2]: 5
- score vs Mi III reactive serum 9327986660 [2]: 8
- score vs Mi III reactive serum 9328118428 [2]: 0
- score vs Mi III reactive serum 9328154853 [2]: 0
- score vs Mi III reactive serum 9328791834 [2]: 5
- score vs Mi III reactive serum 9424248012 [2]: 0
- score vs Mi III reactive serum 9424292604 [2]: 0
- score vs Mi III reactive serum 9424396133 [2]: 0
- score vs Mi III reactive serum 9425256505 [2]: 0
- score vs Mi III reactive serum 9427455417 [2]: 0
- score vs Mi III reactive serum 9427613497 [2]: 0
- score vs Mi III reactive serum 9427615156 [2]: 0
- score vs Mi III reactive serum S-3 [2]: 0
